Laboratory results published in paper PMC5803267, “A small molecule inhibitor of Rheb selectively targets mTORC1 signaling” (Nature Communications, 2018).

Assays:
[1] = target: T1, Rheb-dependent mTORC1 kinase activity (Homo sapiens, UniProt Q15382); test: Rheb-dependent mTORC1 in vitro kinase assay (Rheb-IVK); format: biochemical; conditions: for inhibition of mTORC1 activity in the Rheb-IVK: result in words
T1 construct: using full-length Rheb and mTORC1 purified from mammalian cells via a Flag-Raptor handle; made in house; host or cells: HA-GST-Rheb: Freestyle 293-F cells transfected with pRK5-HA-GST-Rheb; mTORC1: HEK-293E cells stably expressing FLAG-Raptor
T1 sequence (Q15382 1-181 limits assumed): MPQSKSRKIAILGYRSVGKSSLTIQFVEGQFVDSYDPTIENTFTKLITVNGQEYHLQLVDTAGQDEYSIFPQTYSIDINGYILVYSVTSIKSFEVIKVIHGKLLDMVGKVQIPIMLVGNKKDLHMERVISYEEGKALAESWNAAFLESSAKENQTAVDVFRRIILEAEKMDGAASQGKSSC

[2] = system: T389pS6K1 (mTORC1) in PC3 cells; test: Chronic treatment of PC3 cells, T389pS6K1 Western blot; format: cell-based, human; conditions: PC3, replete, 24 h; NR1 30 µM, rapamycin 100 nM
Experimental: (§1) MCF-7 cells were serum-starved for 16 h and treated with compound for 90 min before cell lysis and Western blot analysis. For insulin-stimulated cells, 100 nM insulin was added 30 min before cell lysis. For EGF-stimulated cells, 100 ng mL^−1 EGF was added 10 min before cell lysis. c Rap1 activity was detected in lysates loaded in vitro with either GDP or GTPγS and treated with NR1 at the indicated concentrations. This was followed by a subsequent pulldown of GST-RalGDS-RBD. Bound Rap1 was detected by Western blot. d Evaluation of NR1 in a LAM patient-derived cell line (TRI102) under replete and serum-starved conditions. For replete conditions, TRI102 cells were treated for 90 min with compound in DMEM + 10% FBS. For serum-starved conditions, TRI102 cells were serum-starved 16 h and then treated for 90 min with compound prior to cell lysis and Western blot analysis. e HEK293 cells co-transfected with the indicated mTOR constructs and HA-GST-S6K1 were starved of amino acids or treated with NR1. To assess mTORC1 activity, an HA IP was performed and Western blots probed for ^T389pS6K1. f Chronic treatment of PC3 cells with NR1 to evaluate the inhibition of mTORC1 (using ^T389pS6K1) versus mTORC2 (using ^S473pAKT). PC3 cells were treated with compound under replete conditions for 24 h prior to cell lysis and Western blot analysis.
(§2) Accordingly, a hallmark of a selective mTORC1 inhibitor such as NR1 would be the lack of mTORC2 inhibition irrespective of the duration of treatment. PC3 cells are sensitive to mTORC2 inhibition with long-term rapamycin treatment. Indeed, upon treatment with rapamycin for 24 h, both ^T389pS6K1 and ^S473pAKT were lowered, indicating inhibitory effects on both mTORC1 and mTORC2, respectively.
(§3) For Western-based signaling assays, cells were treated for either 90 min or 2–24 h as indicated before lysis, normalization, and Western analysis. Cells were lysed in Triton lysis buffer: 1% Triton X-100, 50 mM HEPES pH 7.4, 100 mM NaCl, 2 mM EDTA, 10 mM β-glycerophosphate, 10 mM Na-pyrophosphate, protease inhibitor.

[3] = system: S473pAKT (mTORC2) in PC3 cells; test: Chronic treatment of PC3 cells, S473pAKT Western blot; format: cell-based, human; conditions: PC3, replete, 24 h; NR1 30 µM, rapamycin 100 nM
Experimental: as §1, §2, §3

Row | SMILES | inhibition of mTORC1 activity in the Rheb-IVK [1] | T389pS6K1 after 24 h treatment [2] | S473pAKT after 24 h treatment [3] | IC50 ([1]; LanthaScreen TR-FRET format, T46p4E-BP1 antibody, read-out: IC50 in the Rheb-IVK) [nM]
1 | CO[C@H]1C[C@@H]2CC[C@@H](C)[C@@](O)(O2)C(=O)C(=O)N2CCCC[C@H]2C(=O)O[C@H]([C@H](C)C[C@@H]2CC[C@@H](O)[C@H](OC)C2)CC(=O)[C@H](C)/C=C(\C)[C@@H](O)[C@@H](OC)C(=O)[C@H](C)C[C@H](C)/C=C/C=C/C=C/1C [rapamycin, reference compound] | no inhibition | lowered | lowered | 
2 | CCC(=O)N1CCN(c2ccc(-n3c(=O)ccc4cnc5ccc(-c6cnc7ccccc7c6)cc5c43)cc2C(F)(F)F)CC1 [Torin-1] | inhibited mTORC1 activity |  |  | 2
